Laboratory results as given in PubChem BioAssay (NCI).
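Five compound concentrations were applied to cells in 96-well plates for 48 hours; endpoints were derived by simple linear interpolation of the resulting dose-response curve. Here, GI50 denotes the concentration required for 50% inhibition of growth. TGI marks complete inhibition of growth.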

What was measured:
Experiment in all cases: NCI anticancer screen, dose series, 48 h
[1] = system: LOX IMVI melanoma
[2] = system: HS 578T breast
[3] = system: SNB-75 CNS
[4] = system: UACC-62 melanoma
[5] = system: NCI-H460 lung
[6] = system: SF-539 CNS
[7] = system: NCI-H226 lung
[8] = system: SK-MEL-5 melanoma
[9] = system: PC-3 prostate
[10] = system: HOP-92 NSCLC
[11] = system: RXF 393 renal
[12] = system: T-47D breast
[13] = system: IGROV1 ovarian
[14] = system: EKVX NSCLC
[15] = system: SR leukemia
[16] = system: MDA-MB-231 breast
[17] = system: A549 NSCLC
[18] = system: SK-MEL-28 melanoma
[19] = system: A498 renal
[20] = system: HCC-2998 colon
[21] = system: U251 CNS
[22] = system: NCI/ADR-RES ovarian
[23] = system: SK-MEL-2 melanoma
[24] = system: SW-620 colon
[25] = system: MOLT-4 leukemia
[26] = system: SF-295 CNS
[27] = system: SK-OV-3 ovarian
[28] = system: NCI-H522 lung
[29] = system: SNB-19 CNS
[30] = system: ACHN renal
[31] = system: HOP-62 NSCLC
[32] = system: OVCAR-4 ovarian
[33] = system: MCF7 breast
[34] = system: KM12 colon
[35] = system: CAKI-1 renal
[36] = system: OVCAR-3 ovarian
[37] = system: HL-60(TB) leukemia
[38] = system: M14 melanoma
[39] = system: HCT-15 colon
[40] = system: 786-0 renal
[41] = system: MALME-3M melanoma
[42] = system: BT-549 breast
[43] = system: UO-31 renal
[44] = system: DU-145 prostate
[45] = system: COLO 205 colon
[46] = system: OVCAR-8 ovarian
[47] = system: OVCAR-5 ovarian
[48] = system: UACC-257 melanoma
[49] = system: MDA-MB-435
[50] = system: SN12C renal
[51] = system: HCT-116 colon
[52] = system: TK-10 renal

COc1cc2c3c(n(CCCNC4CCCC4)c(=O)c2cc1OC)-c1cc2c(cc1C3=O)OCO2
GI50 [1]: 1.03 µM | TGI [1]: 2.33 µM | GI50 [2]: 19.9 µM | TGI [2]: 81 µM | GI50 [3]: 13.8 µM | TGI [3]: 27.3 µM | GI50 [4]: 13 µM | TGI [4]: 30.2 µM | GI50 [5]: 0.446 µM | TGI [5]: 1.98 µM | GI50 [6]: 1.51 µM | TGI [6]: 2.98 µM | GI50 [7]: 17.8 µM | TGI [7]: 42 µM | GI50 [8]: 17.3 µM | TGI [8]: 31.2 µM | GI50 [9]: 10.3 µM | TGI [9]: 31.9 µM | GI50 [10]: 12.5 µM | TGI [10]: 26.1 µM | GI50 [11]: 3.83 µM | TGI [11]: 15.5 µM | GI50 [12]: 16.6 µM | TGI [12]: 36.2 µM | GI50 [13]: 1.4 µM | TGI [13]: 3.65 µM | GI50 [14]: 4.64 µM | TGI [14]: 17 µM | GI50 [15]: 0.133 µM | TGI [15]: 0.583 µM | GI50 [16]: 1.57 µM | TGI [16]: 3.29 µM | GI50 [17]: 7.46 µM | TGI [17]: 25.8 µM | GI50 [18]: 15.8 µM | TGI [18]: 30.6 µM | GI50 [19]: 15.9 µM | TGI [19]: 29.7 µM | GI50 [20]: 3.45 µM | TGI [20]: 15.7 µM | GI50 [21]: 1.27 µM | TGI [21]: 2.57 µM | GI50 [22]: 2.25 µM | TGI [22]: 15.7 µM | GI50 [23]: 19 µM | TGI [23]: 35.6 µM | GI50 [24]: 1.09 µM | TGI [24]: 2.44 µM | GI50 [25]: 0.0486 µM | TGI [25]: 3.37 µM | GI50 [26]: 0.628 µM | TGI [26]: 21.7 µM | GI50 [27]: 12.7 µM | TGI [27]: 26.4 µM | GI50 [28]: 5.26 µM | TGI [28]: 32 µM | GI50 [29]: 2.96 µM | TGI [29]: 25.5 µM | GI50 [30]: 1.49 µM | TGI [30]: 2.84 µM | GI50 [31]: 2.38 µM | TGI [31]: 20.9 µM | GI50 [32]: 1.91 µM | TGI [32]: 3.99 µM | GI50 [33]: 0.673 µM | TGI [33]: 2.32 µM | GI50 [34]: 11 µM | TGI [34]: 25.2 µM | GI50 [35]: 1.24 µM | TGI [35]: 2.5 µM | GI50 [36]: 1.64 µM | TGI [36]: 3.31 µM | GI50 [37]: 1.02 µM | TGI [37]: 2.66 µM | GI50 [38]: 1.48 µM | TGI [38]: 2.9 µM | GI50 [39]: 1.59 µM | TGI [39]: 3.43 µM | GI50 [40]: 1.61 µM | TGI [40]: 3.24 µM | GI50 [41]: 1.69 µM | TGI [41]: 3.27 µM | GI50 [42]: 13.8 µM | TGI [42]: 27.3 µM | GI50 [43]: 1.66 µM | TGI [43]: 4.21 µM | GI50 [44]: 1.44 µM | TGI [44]: 2.82 µM | GI50 [45]: 1.35 µM | TGI [45]: 15.4 µM | GI50 [46]: 1.45 µM | TGI [46]: 2.98 µM | GI50 [47]: 2.46 µM | TGI [47]: 5.56 µM | GI50 [48]: 15.8 µM | TGI [48]: 30.3 µM | GI50 [49]: 1.65 µM | TGI [49]: 3.19 µM | GI50 [50]: 1.8 µM | TGI [50]: 4.3 µM | GI50 [51]: 1.2 µM | TGI [51]: 2.67 µM | GI50 [52]: 22 µM | TGI [52]: 36.8 µM
